Like-named read-outs stand apart in the source and are kept apart here.
Columns and labels:
[1] = system: MDA 435 cells; assay: Cell growth inhibition: MTT assay, MDA 435 (ER- breast carcinoma); type: cell-based; settings: Homo sapiens, MDA435, read-out: % inhibition of cell growth compared to no drug control
Procedure: ER- breast carcinoma, human (MDA-435) obtained from Dr. Janet Price, MDA Cancer Center, Houston, Tex., were grown in Gibco's RPMI 1640 media supplemented with sodium pyruvate, 10% FBS and 13 ng/mL gentamicin. Cells were incubated at 37° C., 4.5% CO2 and 95.5% humidified air.
1. Cell growth inhibition: MTT Assay
The compounds of formula 1 were tested for ability to inhibit cell growth using the standard MTT assay, a tetrazolium-based assay which measures the viability of cells in culture. Cells were harvested upon reaching 70-80% confluency and pelleted. The cells were then resuspended in medium in which FBS was replaced with Hyclone's Charcoal/Dextran stripped FBS, and seeded (2 mL/well) into 6-well plates (Corning) at a density allowing for linear growth over a four day assay period. Compounds of formula 1 (10 mM stock in dimethylsulfoxide (DMSO)) were added 18-24 hours post-seeding. Compound dilutions were prepared in the appropriate growth media and added to the cells for final concentrations of 10, 3.3 and 1 μM in 0.1% DMSO. At 24, 48 and 72 hr. time points, MTT (3-[4,5-dimethylthiazol-2-yl-2,5-diphenyltetrazolium bromide) stock solution (5mg/mL in 1 PBS) was added to the cells plates (625 μL/well) which were then incubated for 2.5 hours. Liquid was aspirated from the wells and 1 mL/well of 95% ethanol was added to solubilize the formazan reaction product. The plates were shaken (Bellco Mini-Orbital Shaker) for 15 minutes. The solubilized formazan was then transferred (50 μls) into a 96-well plate and the optical densities (OD) were measured (Bio-Tek Microplate Reader) at 570 nm and reference wavelength of 660 nm. Percentage of inhibition of cell growth was calculated according to the following formula: [formula]

[2] = system: ZR-75-1 cells; assay: Apoptosis: cell death detection by ELISA, ZR-75-1; type: cell-based, human; settings: for fold induction at 1 µM / fold induction at 3.3 µM / fold induction at 10 µM: Homo sapiens, read-out: Fold induction of apoptosis compared to no drug control
Procedure: ER+ breast carcinoma, human (ZR-75-1) obtained from ATCC (CRL 1500), were grown in Gibco's RPMI 1640 media supplemented with sodium pyruvate, 10% FBS and 13 ng/mL gentamicin. Cells were incubated at 37° C., 4.5% CO2 and 95.5% humidified air.
2. Apoptosis: Cell death detection by ELISA:
Compounds of formula 1 were tested for the ability to cause apoptosis as follows:
Cells and media were collected, cells were pelleted, resuspended in 100 μl lysis buffer (50 mM Tris-Cl (pH=8.0), 20 mM EDTA, 1% NP-40e) and incubated 30 minutes at 4° C. to lyse. Cell debris was spun down and an aliquot (30 μl) of the […] was removed for protein determination and stored at -20° C. An additional 280 μl of lysis buffer, was added, mixed thoroughly and spun down at 14,000 RPM for 10 minutes at 4° C. An aliquot was removed (180 μl) and the sample was stored at -20° C. until testing.
A commercially available apoptosis detection kit, obtained from Boehringer Mannheim (Cat. No. 1544-674), was used as per the directions provided with the kit (Cell Death Detection ELISA). However, the protocol was modified in that a 1:40 to 1:100 dilution of sample was prepared, rather than the recommended 1:10 dilution, due to the increase in cell number used to prepare the sample extract and the subsequent increase in ELISA reactivity. The assay measures apoptosis by quantifying the amount of nucleosomal fragmentation from the extracts of cells treated with the test compounds (samples). These nucleosomal fragments, generated by the activation of endonucleases, are a known downstream effector of apoptosis. Antihistone antibodies are used to fix any nucleosomal fragments in the sample to the well of the microtiter plates. The sample is then incubated with anti-DNA antibodies conjugated to peroxidase and subsequently incubated with the peroxidase substrate, ABTS. The resulting colorimetric change is measured spectrophotometrically at 405/490nm.
The total protein content of each sample was determined for the purpose of normalizing the ELISA values to amount of sample loaded. Microplate assay protocol described in the instruction manual, for (Biorad DC Assay, Cat.#500-0116) section 5.2. The protein concentrations were calculated based upon a linear regression curve.
d) ELISA assay calculations
Relative ELISA O.D. readings are determined by subtracting the ELISA plate background O.D. value. No drug control O.D. value (lysis buffer only) was subtracted from sample O.D. value. A correction coefficient (CC), based on the sample protein concentration compared to no drug control, was determined to correct the sample O.D. following subtraction of the background O.D. (BCS O.D.). The fold increase over no drug control is calculated and normalized to the total protein concentration of the samples by multiplying against the correction coefficient.
To determine the fold increase in ELISA O.D., obtain the following O.D. measurements:
ELISA plate background--lysis buffer only (EPB);
no drug treated control--cell sample treated with DMSO (NDT);
drug treated sample--cell sample treated with a compound of formula 1 (DT) Subtract EPB from NDT (NDT-EPB) and DT (DT-EPB). The fold increase of the treated over the control is then (DT-EPB)/(NDT-EPB).
To determine the total protein concentration of the samples, obtain the total protein concentration in mg/ul calculated using standard linear regression formula (y=mx+b) based on BSA standards. B=ELISA background. Protein concentration (PC)(mg/ml)=(sample absorbance-b)/x.
Correction coefficient (cc) is (NDT)(PC)/(DT)(PC).
Determine fold increase of ELISA (FT) normalized to total PC:
nDT is DT×cc (which is DT O.D. normalized to PC)
nNDT is NDT×cc (which is NDT O.D. normalized to PC)
FI normalized to PC is nDT/nNDT.

With `C/C(=C/C=C/C(C)=C/C(=O)Nc1ccc(O)cc1)c1cc(C(F)(F)F)cc(C(F)(F)F)c1` [N-(4-hydroxyphenyl)-(2E,4E,6Z)-7-[3,5-bis(trifluoromethyl)phenyl]-3,7-dimethyl-2,4,6-heptatrienamide] as the compound, how does the inhibition at 1 µM ([1]; 24 hours) read?
The inhibition at 1 µM was 47%.

And the inhibition at 3.3 µM ([1]; 24 hours)?
The inhibition at 3.3 µM was 78%.

And the inhibition at 10 µM ([1]; 24 hours)?
Its inhibition at 10 µM is 77%.

What about the inhibition at 1 µM ([1]; 48 hours) of the same compound?
The inhibition at 1 µM was 59%.

And the inhibition at 3.3 µM ([1]; 48 hours)?
The inhibition at 3.3 µM was 91%.

And the inhibition at 10 µM ([1]; 48 hours)?
Its inhibition at 10 µM is 95%.

And the inhibition at 1 µM ([1]; 72 hours)?
Its inhibition at 1 µM is 94%.

What about the inhibition at 3.3 µM ([1]; 72 hours) of the same compound?
The inhibition at 3.3 µM was 96%.

What about the inhibition at 10 µM ([1]; 72 hours) of the same compound?
The inhibition at 10 µM was 98%.

And the fold induction at 1 µM ([2]; ZR-75-1, 24 h, 24 hrs)?
Its fold induction at 1 µM is 2.

What about the fold induction at 3.3 µM ([2]; ZR-75-1, 24 h, 24 hrs) of the same compound?
The fold induction at 3.3 µM was 2.

And the fold induction at 10 µM ([2]; ZR-75-1, 24 h, 24 hrs)?
The fold induction at 10 µM was 3.

What about the fold induction at 1 µM ([2]; ZR-75-1, 48 h, 48 hrs) of the same compound?
Its fold induction at 1 µM is 2.

And the fold induction at 3.3 µM ([2]; ZR-75-1, 48 h, 48 hrs)?
Its fold induction at 3.3 µM is 19.

What about the fold induction at 10 µM ([2]; ZR-75-1, 48 h, 48 hrs) of the same compound?
Its fold induction at 10 µM is 15.

What about the fold induction at 1 µM ([2]; ZR-75-1, 72 h, 72 hrs) of the same compound?
The fold induction at 1 µM was 2.

What about the fold induction at 3.3 µM ([2]; ZR-75-1, 72 h, 72 hrs) of the same compound?
Its fold induction at 3.3 µM is 69.

What about the fold induction at 10 µM ([2]; ZR-75-1, 72 h, 72 hrs) of the same compound?
The fold induction at 10 µM was 67.

And the “Induction of apoptosis (in words)” value ([2]; after 48 hours)?
The value was “induces significant apoptosis”.
